# Source: patent US10725055B1, “Compounds for carbonyl sulfide/carbon disulfide/hydrogen sulfide release and methods of making and using the same” (University of Oregon, priority 2016, dated 2020)
# Entries after “also recorded” stand apart in the source; their conditions may differ. Like-named read-outs stand apart in the source and are kept apart here.
# Assays:
# [1] = H2S release from photo-triggerable compounds under UV light, methylene blue (MB) assay; conditions: for peaking time for H2S release: 50 μM, LED UV light 365 nm, PBS pH 7.4, CA 25 μg/mL
# [2] = test system: BEAS 2B cells; conditions: for LDH levels: 10 μM, 24 hours
# Description: Lactate dehydrogenase (LDH) release was determined as a cytotoxicity assay, a measurement of necrotic cell death, as described previously. Briefly, 30 μL of supernatant was saved before addition of MTT and mixed with 100 μL of freshly prepared LDH assay reagent to reach final concentrations of 85 mM lactic acid, 1040 mM nicotinamide adenine dinucleotide (NAD+), 224 mM N-methylphenazonium methyl sulfate (PMS), 528 mM 2-(4-lodophenyl)-3-(4-nitrophenyl)-5-phenyl-2H-tetrazolium chloride (INT) and 200 mM Tris (pH 8.2). The changes in absorbance were read kinetically at 492 nm for 15 min (kinetic LDH assay) on a monochromator-based reader (Powerwave HT, Biotek) at 37° C. LDH activity values are shown as Vmax for the kinetic assays in mOD/min.
# [3] = test system: BEAS 2B cells
# [4] = test system: BEAS 2B cells; test: Bioenergetic analysis in cultured cells (XF24 Extracellular Flux Analyzer); assay type: cell-based, human; conditions: for ATP synthesis / maximal respiration / oxygen consumption linked with basal respiration: 1, 3, 10 μM, 24 hours; for inhibition of cellular bioenergetics: same conditions, 1, 3, 10 μM
# Description: Cells were then washed with PBS.
# [5] = test system: porcine liver esterase (PLE); test: Esterase (PLE)-triggered H2S release, H2S-selective electrode
# [6] = Total sulfide in whole mouse blood, monobromobimane (mBB) method; conditions: 25 μM compound, 30 minutes incubation with excess TCEP
# [7] = H2O2-triggered H2S release from PeroxyTCM/TCM compounds, H2S electrode; conditions: for H2S release upon treatment with H2O2: PBS pH 7.4, CA 25 μg/mL; for H2S release efficiency: 50 μM compound
# [8] = test system: BEAS 2B cells; remark: listed apart in the source
# [9] = absence of esterase
# [10] = test system: porcine liver esterase (PLE); test: H2S release from 5 detected with H2S-responsive fluorescent probe MeRho-Az; conditions: 50 μM compound, 5 μM MeRho-Az, CA, 1 U/mL PLE
# [11] = test system: HeLa cells; test: Cytoprotection against H2O2-induced oxidative stress, CCK-8; assay type: cell-based; conditions: H2O2 100 μM, compound 10-50 μM, 1 hour
# [12] = not given; remark: listed apart in the source
# [13] = test system: HeLa cells; conditions: 50 μM compound
# [14] = test system: HeLa cells; test: Cytotoxicity in HeLa cells, CCK-8; conditions: 10-100 μM, 2 hour incubation
# [15] = test system: RAW 264.7 cells; conditions: 50 μM compound
# [16] = Fluorescence response of MeRho-TCA to NaSH and other RSONs
# [17] = target: CA from bovine erythrocytes (Bos taurus, UniProt P00921); assay type: biochemical
# Sequence of CA from bovine erythrocytes (P00921 whole entry): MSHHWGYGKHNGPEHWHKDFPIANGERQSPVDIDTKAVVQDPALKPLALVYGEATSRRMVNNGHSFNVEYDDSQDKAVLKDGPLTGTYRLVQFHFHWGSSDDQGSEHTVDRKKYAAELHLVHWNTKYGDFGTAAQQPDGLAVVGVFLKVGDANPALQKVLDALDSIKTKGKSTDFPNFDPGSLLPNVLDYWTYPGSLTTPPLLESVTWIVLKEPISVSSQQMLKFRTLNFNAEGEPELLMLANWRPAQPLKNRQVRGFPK
# [18] = H2S release from azidobenzyl thiocarbamate/carbamate after TCEP reduction in presence of CA, H2S electrode; conditions: buffer containing CA; for H2S release upon injection of TCEP: TCEP added
# [19] = NMR monitoring of self-immolation after TCEP reduction; assay type: physicochemical; conditions: 1H, 13C{1H}, 19F NMR
# Description: In some embodiments, an azide in the para position of the benzylthiocarbamate was used to function as the H2S-responsive “trigger” for self-immolation and COS release. To facilitate NMR identification of the products, azidobenzylthiocarbamate (donor compound 1 of FIG. 2) was made with a p-fluoroaniline payload, and the corresponding carbamate (donor compound 2 of FIG. 2) as a control donor compound. Although donor compound 2 should undergo the same self-immolative decomposition upon azide reduction, it will release CO2 rather than COS, and thus should not result in H2S donation upon reaction with CA. […] The disappearance of the benzylic peak, loss of the thiocarbonyl carbon peak, and formation of new resonances upon self-immolation by NMR spectroscopy (FIGS. 3A-3C) confirmed that self-immolation occurs. All such changes were observed within 5 minutes of TCEP addition, confirming the rapid self-immolation of the scaffold upon reduction, and were consistent with COS release from the thiocarbamate scaffold upon azide reduction.
# [20] = at concentrations lower than 30 μM
# [21] = COS gas in 10 mM PBS, pH 7.4, no CA
compound,measurement,setting,value
COc1cc(COC(=S)Nc2ccc(F)cc2)c([N+](=O)[O-])cc1OC [PhotoTCM-2],peaking time for H2S release,[1],~10 min
NC(=S)OCc1ccccc1 [compound 7],LDH levels,[2],not observed
same,cell viability (MTT reduction),"[3]; 10 μM, 24 hours",not observed
same,ATP synthesis,[4],no effect
same,maximal respiration,[4],only slightly decreased maximal respiration at 10 μM
same,oxygen consumption linked with basal respiration,[4],no effect
same,direct cleavage of benzyl thiocarbamate moiety by PLE,[5]; control lacking the ester trigger,not cleaved directly by PLE
O=[N+]([O-])c1ccccc1COC(=S)Nc1ccc(F)cc1 [PhotoTCM-1],peaking time for H2S release,[1],~10 min
same,H2S generation in the absence of UV irradiation,"[1]; PBS pH 7.4, no UV",did not generate H2S
same,H2S release upon UV irradiation with CA,"[1]; UV 10 min, CA 25 μg/mL",significant enhancement of H2S concentration
same,H2S upon UV irradiation in the absence of CA,"[1]; UV 10 min, no CA",low levels of H2S
same,H2S upon UV irradiation with CA and acetazolamide (AAA),"[1]; UV, CA 25 μg/mL, AAA 10 μM",significantly reduced
same,H2S generation with cellular nucleophiles,"[1]; cysteine, homocysteine, GSH, GSSG, serine, lysine, in the presence of CA",does not generate H2S
Cc1ccc(NC(=S)OCc2ccc(N=[N+]=[N-])cc2)cc1 [compound 4],total sulfide levels in blood,[6],increased total sulfide levels in blood
"C1COCCN1.COc1ccc(P(=S)(S)N2CCOCC2)cc1 (stereo not shown) [GYY4137, reference compound]","cytotoxicity, LDH assay, compared to DMSO vehicle",[2]; up to 30 μM,no significant cytotoxicity
same,"cytotoxicity, MTT assay, compared to DMSO vehicle",[3]; up to 30 μM,no significant cytotoxicity
same,inhibition of cellular bioenergetics,[4],No significant inhibition of cellular bioenergetics
"Cc1ccc(NC(=S)OCc2ccccc2)cc1 [compound 3, O-(4-Benzyl)-N-tolylthiocarbamate]",total sulfide levels in blood,[6],Only samples containing donor 4 with the azide trigger increased total sulfide levels
Cc1ccc(NC(=S)OCc2ccccc2)cc1 [TCM-2],H2S release upon treatment with H2O2,[7],did not release H2S
Cc1ccc(NC(=S)OCc2ccc(OC(=O)C(C)(C)C)cc2)cc1 [compound 5],LDH levels,[2],increase in LDH levels
same,cytotoxicity during live cell imaging,[8],high cytotoxicity
same,ATP synthesis,[4],negatively affected
same,maximal respiration,[4],negatively affected
same,oxygen consumption linked with basal respiration,[4],negatively affected
same,stability in aqueous solution,[9],stable
same,fluorescence response of MeRho-Az,[10],fluorescence turn-on consistent with H2S release
same,H2S release with PLE,[5]; 1 U/mL PLE in the presence of CA,immediate H2S release
same,H2S release with increased PLE,"[5]; 20 U/mL PLE, otherwise identical conditions",significantly faster H2S release
same,rate of H2S production with acetazolamide (AAA),"[5]; PLE, CA, CA inhibitor AAA",significantly reduced the rate of H2S production
same,H2S generation without esterase,"[5]; pH 7.4 PBS, CA 25 μg/mL, no PLE",did not result in H2S generation
CC1(C)OB(c2ccc(COC(=S)Nc3ccc(F)cc3)cc2)OC1(C)C [PeroxyTCM-1],cell viability / protection against H2O2-mediated oxidative stress,[11],significant dose-dependent increase of cell viability
same,"H2S release after incubation with H2O2, O2−, or ONOO−","50 μM compound, RSONS 500 μM, CA 25 μg/mL, 20 min",resulted in H2S release
same,H2S release after incubation with other RSONS,"ClO−, HO, 1O2, TBHP, tBuO, Cys, GSH, GSSG, GSNO, NO2, SO4 2−, S2O3 2−, NO, HNO",failed to release H2S
same,H2S release with H2O2 in the absence of CA,"[12]; H2O2 10 equiv, no CA",positive H2S release response
same,H2S release efficiency,[7]; 250 μM H2O2,80%
same,H2S release efficiency,[7]; 500 μM H2O2,60%
same,HSN2 fluorescence after addition of H2O2,[13]; H2O2 25 μM or 50 μM,H2O2 dose-dependent increase in HSN2 fluorescence
same,HSN2 fluorescence in the absence of H2O2,[13]; HSN2 5 μM,no HSN2 fluorescence was observed
same,cell viability (cytotoxicity),[14],No significant decrease in cell viability
same,HSN2 signal after addition of PMA,[15]; 500 nM PMA,significant increase in signal from HSN2
same,HSN2 signal in the absence of PMA,[15]; HSN2 5 μM,no fluorescent signal from HSN2
"[N-]=[N+]=Nc1ccc(COC(=S)Nc2ccc3c(c2)Oc2ccccc2C32OC(=O)c3ccccc32)cc1 (stereo not shown) [MeRho-TCA, O-(4-Azidobenzyl)-N-methylrhodolthiocarbamate]",fluorescence turn-on,"[16]; 50 equivalents of NaSH, PBS, 1 mM CTAB, pH 7.4, over 90 minutes",65 fold
same,selectivity of fluorescence response,"[16]; vs Cys, GSH, Hcy, S2O3 2-, SO3 2-, SO4 2-, H2O2, NO",excellent selectivity for H2S over other RSONs
"O=C(CCCCCCCCC[P+](c1ccccc1)(c1ccccc1)c1ccccc1)Oc1ccc(-c2cc(=S)ss2)cc1.[Br-] [AP39, reference compound]","cytotoxicity, LDH assay",[2]; at 30 μM,minimal cytotoxicity
same,"cytotoxicity, LDH assay",[2]; [20],none
same,"cytotoxicity, MTT assay",[3]; at 30 μM,minimal cytotoxicity
same,"cytotoxicity, MTT assay",[3]; [20],none
same,inhibition of cellular bioenergetics,[4],No significant inhibition of cellular bioenergetics
Cc1ccc(NC(=O)OCc2ccc(OC(=O)C(C)(C)C)cc2)cc1 [compound 6],LDH levels,[2],not observed
same,ATP synthesis,[4],increases
same,maximal respiration,[4],did not negatively impact
same,oxygen consumption linked with basal respiration,[4],increases
"O=C=S [COS, carbonyl sulfide]",H2S from COS after H2O2 addition,[12]; [21],rapid H2S generation
same,H2S from COS prior to H2O2 addition,[12]; [21],No H2S was detected
same,H2S production from COS,"[17]; COS gas in deoxygenated PBS, 1 mM CTAB, pH 7.4, with CA",rapid H25 production
same,H2S formation from COS,[17]; buffer in the absence of CA,negligible current; also recorded: minimal H2S formation
Fc1ccc(NC(=S)OCc2ccccc2)cc1 [TCM-1],cell viability / protection against H2O2-mediated oxidative stress,[11],no protection
same,H2S release upon treatment with H2O2,[7],did not release H2S
same,cell viability (cytotoxicity),[14],No significant decrease in cell viability
same,H2S release upon UV irradiation with CA,"[1]; UV 10 min, CA 25 μg/mL",did not release H2S
CC1(C)OB(c2ccc(COC(=O)Nc3ccc(F)cc3)cc2)OC1(C)C [PeroxyCM-1],cell viability / protection against H2O2-mediated oxidative stress,[11],attenuated rescue from oxidative stress
same,cell viability (cytotoxicity),[14],No significant decrease in cell viability
"[N-]=[N+]=Nc1ccc(COC(=O)Nc2ccc(F)cc2)cc1 [compound 2, O-(4-Azidobenzyl)-N-(4-fluorophenyl)carbamate]",H2S release upon injection of TCEP,[18],no H2S was produced
O=C(Nc1ccc(F)cc1)OCc1ccccc1[N+](=O)[O-] [PhotoCM-1],H2S release upon UV irradiation with CA,"[1]; UV 10 min, CA 25 μg/mL",no H2S release was observed
"[N-]=[N+]=Nc1ccc(COC(=S)Nc2ccc(F)cc2)cc1 [compound 1, O-(4-Azidobenzyl)-N-(4-fluorophenyl)thiocarbamate]",H2S release upon injection of TCEP,[18],rapid release of H2S
same,H2S formation before TCEP,[18]; no TCEP,did not result in H2S formation; also recorded: no H2S is formed
same,time to NMR changes showing self-immolation after TCEP addition,[19],≤ 5 min
